# Data reported in patent US8846644B2, “Phosphate-containing nanoparticle delivery vehicle” (priority 2009, dated 2014).
# Assay: Hydrophilicity test (dispersion)
# Type: physicochemical
smiles,measurement,value
CC(=O)O[C@H]1C(=O)[C@@]2(C)[C@H]([C@H](OC(=O)c3ccccc3)[C@]3(O)C[C@H](OC(=O)[C@H](O)[C@@H](NC(=O)c4ccccc4)c4ccccc4)C(C)=C1C3(C)C)[C@]1(OC(C)=O)CO[C@@H]1C[C@@H]2O [paclitaxel],dispersion (hydrophilicity),0.4 µg/mL
